From patent US20030071268A1, “Optical data storage medium containing a diaza hemicyanine dye as the light-absorbing compound in the information layer” (priority 2001, published 2003)

Columns and labels:
Assay type in all cases: physicochemical
[1] = absorption spectra measured in solution
Procedure: (§1) For a recordable optical data storage medium according to the invention which is recorded on and read using light from a blue laser, such diaza hemicyanine dyes are preferred whose absorption maximum λmax2 is in the range from 420 to 550 nm, wherein the wavelength λ½ at which the extinction on the short-wavelength slope of the absorption maximum of the wavelength λmax2 is half the extinction value at λmax2, and the wavelength λ 1/10, at which the extinction on the short-wavelength slope of the absorption maximum of the wavelength λmax2 is a tenth of the extinction value at λmax2, are preferably in each case no further than 50 nm away from each other.
as §1, with “a red” for “a blue”, “from 500” for “from 420”, “to 650” for “to 550”, “the long-wavelength” for “the short-wavelength”, “50 mn” for “50 nm”, “other. […]” for “other.”
The absorption spectra are, for example, measured in solution.

[2] = solubility in TFP (2,2,3,3-tetrafluoropropanol)
[3] = film appearance
From the text: In addition to the above-mentioned optical properties, the recordable information layer consisting of light-absorbing organic substances must have a morphology which is as amorphous as possible, in order to keep the noise signal during recording or reading as small as possible. For this purpose it is particularly preferable, when applying the substances by spin-coating from a solution or by vapour deposition and/or sublimation, to prevent crystallization of the light-absorbing substances during the subsequent top-coating with metallic or dielectric layers in vacuo.

- ε ([1]; Example 1): 30100 mol⁻¹ cm⁻¹
- λmax ([1]; in methanol): 592 nm
- Solubility [2]: > 2%
- film appearance [3]: a glassy film
SMILES: CC(C)N(c1n[n+](C)c(/N=N/c2sc(N3CCOCC3)nc2-c2ccccc2)s1)C(C)C [Example 1]
